Like-named read-outs stand apart in the source and are kept apart here. Ends that are not written are not given here.
Assays:
HSV-1 = HSV-1 life cycle stage assay (different modes of peptide treatment), qPCR; format: cell-based, herpes simplex virus type 1
Description: To determine the exact step at which Protopolybia-MP III blocks HSV-1 infection, we conducted an experiment with different modes of peptide treatment in Vero cells (Figure 3A). […] Then, we detected the protective effect of Protopolybia-MP III by pretreating Vero cells with 20 μg/mL Protopolybia-MP III before HSV-1 infection.
Figure 3 Protopolybia-MP III inhibits multiple phases of the HSV-1 life cycle. (A) Schematic diagram for studying stage at which Protopolybia-MP III acts on the HSV-1 life cycle. (B) Effects of Protopolybia-MP III on the attachment, entry/fusion, and post-entry stages of the HSV-1 life cycle. Vero cells were infected with HSV-1 at an MOI of 1 and treated with 20 μg/mL Protopolybia-MP III as described in (A). After 24 h, cells were collected, and intracellular HSV-1 RNA was analyzed by qPCR. (C) The effect of Protopolybia-MP III on cell protection against HSV-1 infection. Vero cells were treated with 20 μg/mL Protopolybia-MP III or PBS and infected with HSV-1 at an MOI of 1 as described in (A). After 24 h, the cells were collected, and intracellular HSV-1 RNA was analyzed by qPCR. ns, no significance. ** p < 0.01. *** p < 0.001.
Cells were collected and lysed using TRIzol reagent (Beyotime Biotechnology, Shanghai, China) to release the intracellular total RNA, followed by precipitation with isopropanol. The first-strand cDNA was reverse-transcribed by the HiScript III 1st Strand cDNA Synthesis Kit (+gDNA wiper) (Vazyme, Nanjing, China). The cDNA was quantitated by qPCR with primers using Taq Pro Universal SYBR qPCR Master Mix (Vazyme). The HSV-1 primers were 5′-[…]-3′ (sense) and 5′-[…]-3′ (antisense). The monkey GAPDH primers were 5′-[…]-3′ (sense) and 5′-[…]-3′ (antisense). The human GAPDH primers were 5′-[…]-3′ (sense) and 5′-[…]-3′ (antisense). qPCR experiments were performed on a Bio-Rad CFX96 Touch (Pleasanton, CA, USA) according to the manufacturer’s instructions.

HSV-1 ICP0 = format: cell-based, herpes simplex virus type 1; settings: for effect on intracellular HSV-1 ICP0 expression level: HSV-1 MOI 1, 24 h, Western blotting; for inhibition rate on intracellular HSV-1 ICP0 expression level: ICP0, 24 h
Description: (A) Amino acid sequence of Protopolybia-MP III. Basic residues are labeled blue, and acidic residues are labeled red. (B,C) Suppression of intracellular HSV-1 infection by Protopolybia-MP III. Cells were preincubated with Protopolybia-MP III at different concentrations or PBS for 1 h and then infected with HSV-1 at a multiplicity of infection (MOI) of 1. After 24 h, the cells were collected. Intracellular HSV-1 RNA was analyzed by qPCR (B), and intracellular HSV-1 ICP0 protein levels were analyzed by Western blotting (C). (D) Suppression of Protopolybia-MP III on extracellular HSV-1 particles. Cells were treated with Protopolybia-MP III at different concentrations or PBS for 24 h, and then the supernatant was collected and evaluated in a plaque formation assay. (E) Cytotoxicity of Protopolybia-MP III to Vero cells. Cells were treated with Protopolybia-MP III or PBS at different concentrations for 24 h, and then the cytotoxicity was determined by CCK8 assay. * p < 0.05. ** p < 0.01. *** p < 0.001.
Figure 2 Protopolybia-MP III inhibits HSV-1 replication in human cell lines. (A) Cytotoxicities of Protopolybia-MP III to A549 cells, HCEC, and SK-N-MC. Cells were treated with Protopolybia-MP III at different concentrations or PBS for 24 h, and then cytotoxicities were determined by the CCK8 assay. (B,C) Suppression of intracellular HSV-1 infection by Protopolybia-MP III in A549 cells, HCEC, and SK-N-MC. Cells were preincubated with Protopolybia-MP III at different concentrations or PBS for 1 h and then infected with HSV-1 at an MOI of 1. After 24 h, the cells were collected. Intracellular HSV-1 RNA was analyzed by qPCR (B), and intracellular HSV-1 ICP0 protein expression levels were analyzed by Western blotting (C). (D) Inhibition of Protopolybia-MP III on extracellular HSV-1 particles in A549 cells, HCEC, and SK-N-MC. Cells were treated with Protopolybia-MP III at different concentrations or PBS for 24 h, and then the supernatant was collected and evaluated in a plaque formation assay. * p < 0.05. ** p < 0.01. *** p < 0.001.
Figure 7 Antiviral activity analysis of Protopolybia-MP III mutants. (A) Amino acid sequences of Protopolybia-MP III mutants. Identical amino acids among Protopolybia-MP I, Protopolybia-MP III, and its mutants are marked in blue, and different amino acids are marked in red. (B) Suppression of Protopolybia-MP I, Protopolybia-MP III, and its mutants on intracellular HSV-1 content. Cells were preincubated with 20 μg/mL peptides or PBS for 1 h and then infected with HSV-1 at an MOI of 1. After 24 h, the cells were collected. Intracellular HSV-1 ICP0 protein levels were analyzed by Western blotting. The ratios of HSV-1 ICP0 to GAPDH were calculated by ImageJ software. (C) Inhibition of HSV-1 free virion infectivity by Protopolybia-MP I, Protopolybia-MP III, and its mutants. HSV-1 (MOI = 1) and 5 μg/mL peptides or PBS were coincubated at 37 °C for 1 h, and the mixtures were then used to infect Vero cells. After 24 h, cells were collected, and intracellular HSV-1 RNA was analyzed by qPCR. ns, no significance. * p < 0.05. ** p < 0.01. *** p < 0.001.
HSV-1 was kindly provided by Professor Zhijian Cao of Wuhan University. Cells were infected with HSV-1 at an MOI of 1 for 24 h. Then, cells were collected for qPCR, Western blotting, and immunofluorescence assays, and the extracellular supernatant was used for plaque formation assays.
Cells were collected and lysed in 1% SDS. The cell lysate was heated at 100 °C for 20 min and centrifuged at 12,000 rpm at 4 °C for 15 min, and then the supernatant was collected and assayed with a BCA Protein Quantification Kit (Vazyme). Equal amounts of protein were separated using a PAGE Gel Fast Preparation Kit (10%) (Epizyme Biotech, Wuhan, China) and transferred to nitrocellulose (NC) membranes (Millipore, Wuhan, China). […]

[1] = Vero cells, 20 μg/mL, HSV-1 MOI 1, 24 h, qPCR of HSV-1 RNA

INWLKLGKAVIDAL-NH2 [Protopolybia-MP III]
protection of cells from HSV-1 infection (pretreatment) (HSV-1; Vero cells pretreated with 20 μg/mL before HSV-1 infection, MOI 1, 24 h, qPCR): almost no effect | inhibitory rate, attachment stage of the HSV-1 life cycle (HSV-1; [1]): 57% | inhibitory rate, entry/fusion stage of the HSV-1 life cycle (HSV-1; [1]): 84% | inhibitory rate, post-entry stage of the HSV-1 life cycle (HSV-1; [1]): 66% | effect on intracellular HSV-1 ICP0 expression level (HSV-1 ICP0; A549 cells): strongly inhibited | effect on intracellular HSV-1 ICP0 expression level (HSV-1 ICP0; HCEC): strongly inhibited | inhibition rate on intracellular HSV-1 ICP0 expression level (HSV-1 ICP0; 5 μg/mL): 67% | inhibition rate on intracellular HSV-1 ICP0 expression level (HSV-1 ICP0; 10 μg/mL): 74% | inhibition rate on intracellular HSV-1 ICP0 expression level (HSV-1 ICP0; 20 μg/mL): 96% | effect on intracellular HSV-1 ICP0 expression level (HSV-1 ICP0; SK-N-MC): strongly inhibited

Reference: paper PMC10976043, “Function and Mechanism of Antiviral Wasp Venom Peptide Protopolybia-MP III and Its Derivatives against HSV-1” (Toxins, 2024)
